Article PMC8007833, “Insights into Acinetobacter baumannii fatty acid synthesis 3-oxoacyl-ACP reductases” (Scientific Reports, 2021)

What was measured:
HMwFabG (ABO12488.2) = target: T1, HMwFabG (ABO12488.2) (Acinetobacter baumannii, UniProt A0A219C8F5); experiment: coenzyme oxidation, absorbance at […] nm; format: biochemical; settings: 200 µM NADH, 500 µM acetoacetyl-CoA, 20 mM HEPES pH 7.4, 125 mM NaCl, 37 °C, 30 min
T1 construct: gene fabG_9; codon-optimised gene in pMCSG21, E. coli BL21(DE3) pLysS; N-terminal 6-His tag cut by TEV; 463 residues, 48 kDa protomer, homodimer
T1 sequence (A0A219C8F5 1-463): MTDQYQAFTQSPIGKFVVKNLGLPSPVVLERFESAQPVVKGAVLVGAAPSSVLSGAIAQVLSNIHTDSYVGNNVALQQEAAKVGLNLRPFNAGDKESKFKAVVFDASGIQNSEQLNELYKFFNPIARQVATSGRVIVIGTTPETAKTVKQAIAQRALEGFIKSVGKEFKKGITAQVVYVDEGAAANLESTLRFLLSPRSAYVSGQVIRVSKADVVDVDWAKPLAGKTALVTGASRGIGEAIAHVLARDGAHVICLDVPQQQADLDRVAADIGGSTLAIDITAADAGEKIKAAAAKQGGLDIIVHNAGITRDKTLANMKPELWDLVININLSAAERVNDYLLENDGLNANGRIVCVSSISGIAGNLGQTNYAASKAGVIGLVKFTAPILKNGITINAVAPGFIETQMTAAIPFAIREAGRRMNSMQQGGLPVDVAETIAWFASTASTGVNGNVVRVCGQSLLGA

FabG (ABO11256.2) [1] = target: T2, FabG (ABO11256.2) (Acinetobacter baumannii, UniProt V5VHN7); experiment: X-ray crystal structure of co-crystal, […] Å; format: binding; settings: co-crystallised at 1:10 protein to coenzyme, 0.1 M Tris pH 8.0, 2 M ammonium sulphate; coenzyme site
T2 construct: codon-optimised gene in pMCSG21, E. coli BL21(DE3) pLysS; N-terminal 6-His tag cut by TEV; 244 residues, 26 kDa protomer, homotetramer about 100 kDa
T2 sequence (V5VHN7 1-244): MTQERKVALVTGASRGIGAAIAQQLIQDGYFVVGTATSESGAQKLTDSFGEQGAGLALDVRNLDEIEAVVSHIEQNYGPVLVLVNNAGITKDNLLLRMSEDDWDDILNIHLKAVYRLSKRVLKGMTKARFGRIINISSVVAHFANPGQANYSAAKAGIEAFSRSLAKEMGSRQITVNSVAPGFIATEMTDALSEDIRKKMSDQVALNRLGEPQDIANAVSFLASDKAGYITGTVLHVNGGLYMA

FabG (ABO11256.2) [2] = target: T2, FabG (ABO11256.2); experiment: coenzyme oxidation, absorbance at […] nm; format: biochemical; settings: 500 µM acetoacetyl-CoA, 200 µM NADPH, 20 mM HEPES pH 7.4, 125 mM NaCl, 37 °C, 30 min

Row | Compound | coenzyme oxidation, absorbance at 340 nm (HMwFabG (ABO12488.2)) | X-ray crystal structure of co-crystal, 1.85 Å (FabG (ABO11256.2) [1]) | coenzyme oxidation, absorbance at 340 nm (FabG (ABO11256.2) [2])
1 | NC(=O)C1=CN([C@@H]2O[C@H](COP(=O)(O)OP(=O)(O)OC[C@H]3O[C@@H](n4cnc5c(N)ncnc54)[C@H](O)[C@@H]3O)[C@@H](O)[C@H]2O)C=CC1 [NADH] | Our enzyme assays showed clear preference for NADH as the catalytic coenzyme |  | 
2 | NC(=O)C1=CN([C@@H]2O[C@H](COP(=O)(O)OP(=O)(O)OC[C@H]3O[C@@H](n4cnc5c(N)ncnc54)[C@H](OP(=O)(O)O)[C@@H]3O)[C@@H](O)[C@H]2O)C=CC1 [NADPH] |  | strong positive density allowing NADPH to be modelled within each protomer | 
3 | CC(=O)CC(=O)SCCNC(=O)CCNC(=O)[C@H](O)C(C)(C)COP(=O)(O)OP(=O)(O)OC[C@H]1O[C@@H](n2cnc3c(N)ncnc32)[C@H](O)[C@@H]1OP(=O)(O)O [acetoacetyl-CoA] | Enzyme activity of HMwFabG with acetoacetyl-CoA |  | enzyme assays were conducted in the presence of a substrate mimic, acetoacetyl-CoA
